Assay results published in ChEMBL document CHEMBL3046300, “Design, synthesis, and biological evaluation of sulfonic acid ester and benzenesulfonamide derivatives as potential CETP inhibitors” (Med Chem Res, 2012).

How the values were obtained:
[1] = target: T1, Cholesteryl ester transfer protein (Oryctolagus cuniculus) (UniProt P22687); assay: Inhibition of Oryctolagus cuniculus (rabbit) CETP-mediated cholesteryl ester transfer at 10 uM after 1 hr by fluorescence assay
T1 sequence (whole entry): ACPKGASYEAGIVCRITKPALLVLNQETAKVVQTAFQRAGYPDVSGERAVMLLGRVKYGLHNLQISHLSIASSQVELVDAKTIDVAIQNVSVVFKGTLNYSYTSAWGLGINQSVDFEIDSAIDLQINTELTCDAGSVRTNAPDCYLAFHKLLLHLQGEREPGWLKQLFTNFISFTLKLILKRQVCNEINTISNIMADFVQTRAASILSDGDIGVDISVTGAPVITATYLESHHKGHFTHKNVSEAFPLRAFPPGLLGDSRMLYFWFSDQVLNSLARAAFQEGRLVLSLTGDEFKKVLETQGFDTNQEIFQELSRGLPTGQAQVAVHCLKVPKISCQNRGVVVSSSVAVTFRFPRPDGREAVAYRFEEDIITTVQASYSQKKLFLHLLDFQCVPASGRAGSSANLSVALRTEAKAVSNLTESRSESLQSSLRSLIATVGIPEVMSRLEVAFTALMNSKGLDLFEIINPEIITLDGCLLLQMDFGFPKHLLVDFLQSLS

[2] = target: T2, Cholesteryl ester transfer protein (Oryctolagus cuniculus, UniProt P22687); assay: Inhibition of Oryctolagus cuniculus (rabbit) CETP-mediated cholesteryl ester transfer after 1 hr by fluorescence assay
T2 sequence (P22687 whole entry): T1 sequence (whole entry)

Row | SMILES | inhibition [1] [%] | IC50 [2] [µM]
1 | Cc1ccc(S(=O)(=O)Nc2ccc(OCc3cccc(Cl)c3)cc2)cc1 | 29.6 | –
2 | Cc1ccc(COc2ccc(NS(=O)(=O)c3ccc(C)cc3)cc2)cc1 | 0 | –
3 | Cc1ccc(S(=O)(=O)Nc2ccc(OCc3ccc(C(F)(F)F)cc3)cc2)cc1 | 9.9 | –
4 | Cc1ccc(S(=O)(=O)N(c2ccc(OCc3cccc(C(F)(F)F)c3)cc2)S(=O)(=O)c2ccc(C)cc2)cc1 | 39 | 11.1
5 | Cc1ccc(S(=O)(=O)N(c2ccc(OCc3cccc(C)c3)cc2)S(=O)(=O)c2ccc(C)cc2)cc1 | 66.9 | 3.4
6 | Cc1ccc(S(=O)(=O)Nc2ccc(OCc3ccc(Br)cc3)cc2)cc1 | 10.2 | –
7 | Cc1ccc(S(=O)(=O)Oc2ccc(NCc3cccc([N+](=O)[O-])c3)cc2)cc1 | 29.9 | –
8 | COc1cccc(COc2ccc(NS(=O)(=O)c3ccc(C)cc3)cc2)c1 | 22.8 | –
9 | Cc1ccc(S(=O)(=O)Nc2ccc(OCc3ccc([N+](=O)[O-])cc3)cc2)cc1 | 15.5 | –
10 | COc1cccc(COc2ccc(N(S(=O)(=O)c3ccc(C)cc3)S(=O)(=O)c3ccc(C)cc3)cc2)c1 | 65.3 | 3.9

Continued, values first:

Row | inhibition [1] [%] | IC50 [2] [µM] | SMILES
11 | 29 | – | Cc1ccc(S(=O)(=O)Oc2ccc(N(Cc3cccc(C)c3)Cc3cccc(C)c3)cc2)cc1
12 | 31.3 | 30.1 | Cc1ccc(S(=O)(=O)Oc2ccc(NCc3cccc(C)c3)cc2)cc1
13 | 22.3 | – | Cc1ccc(CN(Cc2ccc(C)cc2)c2ccc(OS(=O)(=O)c3ccc(C)cc3)cc2)cc1
14 | 37.5 | 13.2 | Cc1ccc(S(=O)(=O)N(c2ccc(OCc3ccc(Cl)cc3)cc2)S(=O)(=O)c2ccc(C)cc2)cc1
15 | 42.6 | 10.5 | Cc1ccc(S(=O)(=O)N(c2ccc(OCc3cccc(Cl)c3)cc2)S(=O)(=O)c2ccc(C)cc2)cc1
16 | 24.7 | – | Cc1ccc(S(=O)(=O)Oc2ccc(N(Cc3cccc(C(F)(F)F)c3)Cc3cccc(C(F)(F)F)c3)cc2)cc1
17 | 23.1 | – | Cc1ccc(S(=O)(=O)Oc2ccc(N(Cc3cccc(Br)c3)Cc3cccc(Br)c3)cc2)cc1
18 | 16.1 | – | Cc1ccc(S(=O)(=O)Oc2ccc(NCc3cccc(Br)c3)cc2)cc1
19 | 31.4 | 29.7 | Cc1ccc(S(=O)(=O)Oc2ccc(N(Cc3cccc([N+](=O)[O-])c3)Cc3cccc([N+](=O)[O-])c3)cc2)cc1
20 | 9.3 | – | Cc1ccc(S(=O)(=O)Oc2ccc(N(Cc3ccc([N+](=O)[O-])cc3)Cc3ccc([N+](=O)[O-])cc3)cc2)cc1
21 | 23 | – | Cc1ccc(S(=O)(=O)Nc2ccc(OCc3ccc(Cl)cc3)cc2)cc1
22 | 17.5 | – | Cc1ccc(S(=O)(=O)Oc2ccc(N(Cc3ccc(Br)cc3)Cc3ccc(Br)cc3)cc2)cc1
23 | 24.9 | – | Cc1ccc(S(=O)(=O)Oc2ccc(N(Cc3ccc(Cl)cc3)Cc3ccc(Cl)cc3)cc2)cc1
24 | 31.9 | 28.5 | Cc1ccc(S(=O)(=O)Oc2ccc(N(Cc3cccc(Cl)c3)Cc3cccc(Cl)c3)cc2)cc1
